Assay [1] has as its target T1, hCRHR2 (Homo sapiens, UniProt Q13324).
T1 sequence (Q13324 1-411): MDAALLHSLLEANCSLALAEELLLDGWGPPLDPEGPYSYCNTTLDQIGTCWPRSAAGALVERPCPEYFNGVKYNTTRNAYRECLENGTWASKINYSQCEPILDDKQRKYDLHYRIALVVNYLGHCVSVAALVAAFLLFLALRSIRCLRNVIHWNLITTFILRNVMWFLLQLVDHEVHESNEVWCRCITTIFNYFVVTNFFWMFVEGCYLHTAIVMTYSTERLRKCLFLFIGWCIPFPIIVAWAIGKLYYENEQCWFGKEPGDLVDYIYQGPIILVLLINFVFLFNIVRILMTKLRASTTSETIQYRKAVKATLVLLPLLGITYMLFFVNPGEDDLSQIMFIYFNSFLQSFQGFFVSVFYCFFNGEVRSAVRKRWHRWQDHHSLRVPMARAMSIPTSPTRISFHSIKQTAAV
The assay can be described thus: HTRF cAMP assay, determination of hCRHR2 potency (peptide libraries 5 conc., purified peptides 11 conc.). It counts as cell-based. In outline: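 EC50 derived by variable-slope sigmoid regression of FRET-based cAMP data; cellular cAMP displaced d2-labelled tracer from cryptate anti-cAMP antibody. Stable human CRHR2 CHO-K1 suspension cells, revived from frozen stocks just before the run.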
(Time-resolved FRET reads energy transfer from a long-lived donor to a nearby acceptor.)

The target of assay [2] is T2, hCRHR1 (Homo sapiens, UniProt P34998).
T2 sequence (P34998 24-415): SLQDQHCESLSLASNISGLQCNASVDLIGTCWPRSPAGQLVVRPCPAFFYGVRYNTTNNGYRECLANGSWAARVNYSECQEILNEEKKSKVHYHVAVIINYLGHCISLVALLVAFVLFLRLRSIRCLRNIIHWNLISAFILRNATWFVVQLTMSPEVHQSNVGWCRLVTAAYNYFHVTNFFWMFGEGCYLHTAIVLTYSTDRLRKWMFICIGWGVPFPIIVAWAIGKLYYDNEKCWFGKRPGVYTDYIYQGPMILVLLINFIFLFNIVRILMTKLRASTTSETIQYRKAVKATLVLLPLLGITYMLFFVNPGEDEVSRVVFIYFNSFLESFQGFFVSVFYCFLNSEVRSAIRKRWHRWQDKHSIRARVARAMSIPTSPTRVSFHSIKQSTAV
The assay can be described thus: HTRF cAMP assay, determination of hCRHR1 potency (peptide libraries 5 conc., purified peptides 11 conc.). It counts as cell-based. In short, it runs like this:
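Cellular cAMP was read by time-resolved FRET between d2-labelled cAMP and cryptate anti-cAMP antibody. The cells were freshly thawed suspension CHO-K1 cells stably expressing human CRHR1.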

The mark [3] stands for this setting: library peptides, matched molecular pairs L vs Nle in position X^38, read-out: Potency hCRHR2 pEC50 (converted).
The mark [4] stands for this setting: library peptides, matched molecular pairs L vs Nle in position X^38, read-out: Potency hCRHR1 pEC50 (converted).

Where two headings read alike, the source gives them in different places. Starred links: 1 amine or outer side, 2 acyl side, 3 side chain; linkers in the order of their positions; H or OH if unused. Non-standard residues stand in square brackets, D forms with d. Residues, ends and D or L forms follow the SMILES beside them. Groups on a side chain read outwards from the residue. *: point of attachment. C20 diacid = O=C(O)CCCCCCCCCCCCCCCCCCC(=O)*; Pro(4S-NH2) = N[C@@H]1CN[C@H](C(=O)O)C1; γGlu = O=C(O)[C@H](CCC(=O)[*:2])N[*:1]; Nle = CCCC[C@H](N)C(=O)O; AEEA = NCCOCCOCC(=O)O

The values that follow come from patent EP4810052A2, “HCRHR2 SELECTIVE POLYPEPTIDES” (Gubra A/S, priority 2023, dated 2026).

As to `CC[C@H](C)[C@H](N)C(=O)N[C@H](C(=O)N[C@@H](CC(C)C)C(=O)N[C@@H](CO)C(=O)N[C@@H](CC(C)C)C(=O)N[C@@H](CC(=O)O)C(=O)N[C@H](C(=O)N1CCC[C@H]1C(=O)N[C@H](C(=O)NCC(=O)N[C@@H](CC(C)C)C(=O)N[C@@H](CC(C)C)C(=O)N[C@@H](CCC(N)=O)C(=O)N[C@H](C(=O)N[C@@H](CC(C)C)C(=O)N[C@@H](CC(C)C)C(=O)N[C@@H](CCC(=O)O)C(=O)N[C@@H](CCC(N)=O)C(=O)N[C@@H](C)C(=O)N[C@@H](CCCNC(=N)N)C(=O)N[C@@H](C)C(=O)N[C@@H](CCCNC(=N)N)C(=O)N[C@@H](C)C(=O)N[C@@H](CCC(N)=O)C(=O)N[C@@H](CCCNC(=N)N)C(=O)N[C@@H](CCC(=O)O)C(=O)N[C@@H](CCC(N)=O)C(=O)N[C@@H](C)C(=O)N[C@@H](CCCCNC(=O)COCCOCCNC(=O)COCCOCCNC(=O)CC[C@H](NC(=O)CC[C@H](NC(=O)CCCCCCCCCCCCCCCCCCC(=O)O)C(=O)O)C(=O)O)C(=O)N[C@H](C(=O)N[C@@H](CC(N)=O)C(=O)N[C@@H](C)C(=O)N[C@@H](CCC(=O)O)C(=O)N[C@H](C(=O)N[C@@H](CC(C)C)C(=O)N[C@@H](C)C(=O)N[C@@H](CCC(=O)O)C(=O)N[C@H](C(N)=O)[C@@H](C)CC)[C@@H](C)CC)[C@@H](C)O)[C@@H](C)CC)[C@@H](C)CC)C(C)C)C(C)C` [compound 64] (H-IVLSLDVPIGLLQILLEQARARAQREQAK([AEEA-AEEA-γGlu-γGlu-C20 diacid])TNAEILAEI-NH2), the EC50 in assay [1] (setting [3]) is 0.126 nM; in assay [2] (setting [4]), 25100 nM.

Regarding `CC[C@H](C)[C@H](N)C(=O)N[C@H](C(=O)N[C@@H](CC(C)C)C(=O)N[C@@H](CO)C(=O)N[C@@H](CC(C)C)C(=O)N[C@@H](CC(=O)O)C(=O)N[C@H](C(=O)N1CCC[C@H]1C(=O)N[C@H](C(=O)NCC(=O)N[C@@H](CC(C)C)C(=O)N[C@@H](CC(C)C)C(=O)N[C@@H](CCC(N)=O)C(=O)N[C@H](C(=O)N[C@@H](CC(C)C)C(=O)N[C@@H](CC(C)C)C(=O)N[C@@H](CCC(=O)O)C(=O)N[C@@H](CCC(N)=O)C(=O)N[C@@H](C)C(=O)N[C@@H](CCCNC(=N)N)C(=O)N[C@@H](C)C(=O)N[C@@H](CCC(N)=O)C(=O)N[C@@H](C)C(=O)N[C@@H](C)C(=O)N[C@@H](CCCNC(=N)N)C(=O)N[C@@H](CCC(N)=O)C(=O)N[C@@H](CCC(N)=O)C(=O)N[C@@H](C)C(=O)N[C@@H](CCCCNC(=O)COCCOCCNC(=O)COCCOCCNC(=O)CC[C@H](NC(=O)CC[C@H](NC(=O)CCCCCCCCCCCCCCCCCCC(=O)O)C(=O)O)C(=O)O)C(=O)N[C@H](C(=O)N[C@@H](CC(N)=O)C(=O)N[C@@H](C)C(=O)N[C@@H](CCC(=O)O)C(=O)N[C@H](C(=O)N[C@@H](CC(C)C)C(=O)N[C@@H](C)C(=O)N[C@@H](CCC(=O)O)C(=O)N[C@H](C(N)=O)C(C)C)[C@@H](C)CC)[C@@H](C)O)[C@@H](C)CC)[C@@H](C)CC)C(C)C)C(C)C` [compound 54] (H-IVLSLDVPIGLLQILLEQARAQAARQQAK([AEEA-AEEA-γGlu-γGlu-C20 diacid])TNAEILAEV-NH2), the results for the EC50 in assay [1] (setting [3]) and in assay [2] (setting [4]) were 0.398 nM and 20000 nM, respectively.

In the case of `CCCC[C@H](NC(=O)[C@@H](NC(=O)[C@H](CCC(=O)O)NC(=O)[C@H](C)NC(=O)[C@H](CC(N)=O)NC(=O)[C@@H](NC(=O)[C@H](CCCCNC(=O)COCCOCCNC(=O)COCCOCCNC(=O)CC[C@H](NC(=O)CC[C@H](NC(=O)CCCCCCCCCCCCCCCCCCC(=O)O)C(=O)O)C(=O)O)NC(=O)[C@H](C)NC(=O)[C@H](CCC(N)=O)NC(=O)[C@H](CCC(=O)O)NC(=O)[C@H](CCCNC(=N)N)NC(=O)[C@H](C)NC(=O)[C@@H](NC(=O)[C@H](CCCNC(=N)N)NC(=O)[C@H](C)NC(=O)[C@H](CCCNC(=N)N)NC(=O)[C@H](C)NC(=O)[C@H](CCC(N)=O)NC(=O)[C@H](CCC(=O)O)NC(=O)[C@H](CC(C)C)NC(=O)[C@H](CC(C)C)NC(=O)[C@@H](NC(=O)[C@H](CCC(N)=O)NC(=O)[C@H](CC(C)C)NC(=O)[C@H](CC(C)C)NC(=O)CNC(=O)[C@@H](NC(=O)[C@@H]1C[C@H](N)CN1C(=O)[C@@H](NC(=O)[C@H](CC(=O)O)NC(=O)[C@H](CC(C)C)NC(=O)[C@H](CO)NC(=O)[C@H](CC(C)C)NC(=O)[C@@H](NC(=O)[C@@H](N)[C@@H](C)CC)C(C)C)C(C)C)[C@@H](C)CC)[C@@H](C)CC)C(C)C)[C@@H](C)O)[C@@H](C)CC)C(=O)N[C@@H](C)C(=O)N[C@@H](CCC(=O)O)C(=O)N[C@H](C(N)=O)C(C)C` [compound 77] (H-IVLSLDV[Pro(4S-NH2)]IGLLQILLEQARARVAREQAK([AEEA-AEEA-γGlu-γGlu-C20 diacid])TNAEI[Nle]AEV-NH2), the EC50 in assay [1] (setting [3]) is 0.501 nM; in assay [2] (setting [4]), 3.16 nM.

`CC[C@H](C)[C@H](N)C(=O)N[C@H](C(=O)N[C@@H](CC(C)C)C(=O)N[C@@H](CO)C(=O)N[C@@H](CC(C)C)C(=O)N[C@@H](CC(=O)O)C(=O)N[C@H](C(=O)N1CCC[C@H]1C(=O)N[C@H](C(=O)NCC(=O)N[C@@H](CC(C)C)C(=O)N[C@@H](CC(C)C)C(=O)N[C@@H](CCC(N)=O)C(=O)N[C@H](C(=O)N[C@@H](CC(C)C)C(=O)N[C@@H](CC(C)C)C(=O)N[C@@H](CCC(=O)O)C(=O)N[C@@H](CCC(N)=O)C(=O)N[C@@H](C)C(=O)N[C@@H](CCCNC(=N)N)C(=O)N[C@@H](C)C(=O)N[C@@H](CCC(=O)O)C(=O)N[C@@H](C)C(=O)N[C@@H](C)C(=O)N[C@@H](CCCNC(=N)N)C(=O)N[C@@H](CCC(=O)O)C(=O)N[C@@H](CCC(N)=O)C(=O)N[C@@H](C)C(=O)N[C@@H](CCCCNC(=O)COCCOCCNC(=O)COCCOCCNC(=O)CC[C@H](NC(=O)CC[C@H](NC(=O)CCCCCCCCCCCCCCCCCCC(=O)O)C(=O)O)C(=O)O)C(=O)N[C@H](C(=O)N[C@@H](CC(N)=O)C(=O)N[C@@H](C)C(=O)N[C@@H](CCC(=O)O)C(=O)N[C@H](C(=O)N[C@@H](CC(C)C)C(=O)N[C@@H](C)C(=O)N[C@@H](CCC(=O)O)C(=O)N[C@H](C(N)=O)[C@@H](C)CC)[C@@H](C)CC)[C@@H](C)O)[C@@H](C)CC)[C@@H](C)CC)C(C)C)C(C)C` [SEQ ID NO: 23] (H-IVLSLDVPIGLLQILLEQARAEAAREQAK([AEEA-AEEA-γGlu-γGlu-C20 diacid])TNAEILAEI-NH2): the EC50 in assay [1] (Table 3, matched molecular pairs X^38 L vs Nle, peptide library of Example 4, read-out: hCRHR2 pEC50 (converted)) is 0.501 nM; in assay [2] (Table 3, matched molecular pairs X^38 L vs Nle, peptide library of Example 4, read-out: hCRHR1 pEC50 (converted)), 39800 nM.

Take `CCCC[C@H](NC(=O)[C@@H](NC(=O)[C@H](CCC(=O)O)NC(=O)[C@H](C)NC(=O)[C@H](CC(N)=O)NC(=O)[C@@H](NC(=O)[C@H](CCCCNC(=O)COCCOCCNC(=O)COCCOCCNC(=O)CC[C@H](NC(=O)CC[C@H](NC(=O)CCCCCCCCCCCCCCCCCCC(=O)O)C(=O)O)C(=O)O)NC(=O)[C@H](C)NC(=O)[C@H](CCC(=O)O)NC(=O)[C@H](CCC(=O)O)NC(=O)[C@H](CCCNC(=N)N)NC(=O)[C@H](CC(C)C)NC(=O)[C@H](C)NC(=O)[C@H](CCCNC(=N)N)NC(=O)[C@H](C)NC(=O)[C@H](CCCNC(=N)N)NC(=O)[C@H](C)NC(=O)[C@H](CCC(N)=O)NC(=O)[C@H](CCC(=O)O)NC(=O)[C@H](CC(C)C)NC(=O)[C@H](CC(C)C)NC(=O)[C@@H](NC(=O)[C@H](CCC(N)=O)NC(=O)[C@H](CC(C)C)NC(=O)[C@H](CC(C)C)NC(=O)CNC(=O)[C@@H](NC(=O)[C@@H]1CCCN1C(=O)[C@@H](NC(=O)[C@H](CC(=O)O)NC(=O)[C@H](CC(C)C)NC(=O)[C@H](CO)NC(=O)[C@H](CC(C)C)NC(=O)[C@@H](NC(=O)[C@@H](N)[C@@H](C)CC)C(C)C)C(C)C)[C@@H](C)CC)[C@@H](C)CC)[C@@H](C)O)[C@@H](C)CC)C(=O)N[C@@H](C)C(=O)N[C@@H](CCC(=O)O)C(=O)N[C@H](C(N)=O)C(C)C` [compound 51] (H-IVLSLDVPIGLLQILLEQARARALREEAK([AEEA-AEEA-γGlu-γGlu-C20 diacid])TNAEI[Nle]AEV-NH2): the EC50 in assay [1] (setting [3]) was 0.794 nM; in assay [2] (setting [4]), 126000 nM.
